Measurements taken from patent US11819512B2, “Solid forms of a CD73 inhibitor and the use thereof” (ARCUS BIOSCIENCES, INC., priority 2018, dated 2023).

Columns and labels:
[1] = Hygroscopicity by dynamic vapor sorption (DVS); type: physicochemical; settings: 25° C.
Experimental: A quantity of the crystalline material was analyzed by dynamic vapor sorption (DVS). The sample was subjected to a ramping profile from 40-90% RH at 10% increments, maintaining the sample at each step until a stable weight had been achieved at 25° C. After completion of the sorption cycle, the sample was dried using the same procedure to 0% RH followed by a second sorption cycle back to 40% RH. Two cycles were performed overall. The weight change during the sorption/desorption cycles were plotted, allowing for the hygroscopic nature of the sample to be determined. Significant hysteresis was observed, with the material retaining much larger quantities of water during the second sorption cycle as shown in FIG. 10. […] The amount of water in the sample at 90% relative humidity corresponds to the pentahydrate of the material.

[2] = Stability of crystalline material on storage (HPLC and XRPD); type: physicochemical; settings: for purity by HPLC after storage: decrease from 99%
[3] = 40° C. at 75% relative humidity (RH) for one week

C[C@H](Nc1cc(Cl)nc2c1cnn2[C@@H]1O[C@H](COP(=O)(O)CP(=O)(O)O)[C@@H](O)[C@H]1O)c1ccccc1F [crystalline material, [({[(2R,3S,4R,5R)-5-(6-chloro-4-{[(1S)-1-(2-fluorophenyl)ethyl]amino}-1H-pyrazolo[3,4-b]pyridin-1-yl)-3,4-dihydroxyoxolan-2-yl]methoxy}(hydroxy)phosphoryl)methyl]phosphonic Acid]
hygroscopic nature ([1]; DVS): hygroscopic | XRPD of the sample post-DVS ([1]; after two sorption/desorption cycles, 0-90% RH): loss of crystallinity and regeneration of amorphous material | increase of water (weight) by DVS ([1]; at 90% relative humidity relative to 0% relative humidity): 13.2 % wt. | crystallinity after storage ([2]; 25° C. at 60% relative humidity (RH) for one week): no change in crystallinity | solid form by XRPD after storage [2, 3]: conversion to the amorphous material | purity by HPLC after storage [2, 3]: 97.3% | morphology by XRPD after storage ([2]; 80° C. for one week): no change in morphology | purity by HPLC after storage ([2]; 80° C. for one week): 97.4%
